Results published in PMC10482825 (Scientific Reports, 2023).
“And” between values parts separate entries of the source, which are not always exact repeats. Equal values may be shown once. Where a SMILES comes first, the peptide text is derived from it.

Legend:
[1] = test system: B. subtilis; assay: Radial diffusion assay; format: cell-based, Bacillus subtilis (ATCC, 11774); conditions: 5 µl of 500 µM per 3 mm well, 37 °C, mean ± SD
Source text: (§1) The microbial strains used in this study were Bacillus subtilis (ATCC, 11774), Candida albicans (TIMM, 1768), Enterococcus faecalis (ATCC, 33186), Escherichia coli (ATCC, 11775), Klebsiella pneumoniae (ATCC, 13883), Methicillin-resistant Staphylococcus aureus (ATCC, BAA-41), Pseudomonas aeruginosa (ATCC, 10145), Salmonella enterica (ATCC, 14028), Serratia marcescens (ATCC, 13880), Staphylococcus aureus (ATCC, 25923) and Vibrio parahaemolyticus (ATCC, 17802). All microbial strains were cultivated overnight at 37 °C and 200 rpm, then subcultured and incubated for 3 h under the same incubation conditions to obtain the mid-logarithmic growth phase. The cultivated cells were washed twice with 10 mM Tris–HCl containing 5 mM D-glucose at pH 7.4 and suspended in the same buffer to be used in different assays, as previously described.
(§2) The antimicrobial activity spectra of the selected cryptides were screened against all the mentioned microbial pathogens, except V. parahaemolyticus, by radial diffusion assay as previously described, with slight modifications. […] The plates were then incubated for 18 h, and the antimicrobial activities were measured in the absolute unit (AU), as previously described. […]
(§3) plate. The plates were then incubated for 12 h at 37 °C and antimicrobial activities were measured in the term of absolute unit (A.U). […]

[2] = test system: S. aureus; assay: Radial diffusion assay; format: cell-based, Staphylococcus aureus (ATCC, 25923); conditions: 5 µl of 500 µM per 3 mm well, 37 °C, mean ± SD
Source text: as §1, §2, §3

[3] = test system: E. faecalis; assay: Radial diffusion assay; format: cell-based, Enterococcus faecalis (ATCC, 33186); conditions: 5 µl of 500 µM per 3 mm well, 37 °C, mean ± SD
Source text: as §1, §2, §3

[4] = test system: E. coli K-1; assay: Radial diffusion assay; format: cell-based, Escherichia coli (ATCC, 11775); conditions: 5 µl of 500 µM per 3 mm well, 37 °C, mean ± SD
Source text: as §1, §2, §3

[5] = test system: K. pneumoniae; assay: Radial diffusion assay; format: cell-based, Klebsiella pneumoniae (ATCC, 13883); conditions: 5 µl of 500 µM per 3 mm well, 37 °C, mean ± SD
Source text: as §1, §2, §3

[6] = test system: S. enterica; assay: Radial diffusion assay; format: cell-based, Salmonella enterica (ATCC, 14028); conditions: 5 µl of 500 µM per 3 mm well, 37 °C, mean ± SD
Source text: as §1, §2, §3

[7] = test system: MRSA; assay: Radial diffusion assay; format: cell-based, Methicillin-resistant Staphylococcus aureus (ATCC, BAA-41); conditions: 5 µl of 500 µM per 3 mm well, 37 °C, mean ± SD
Source text: as §1, §2, §3

[8] = test system: S. marcescens; assay: Radial diffusion assay; format: cell-based, Serratia marcescens (ATCC, 13880); conditions: 5 µl of 500 µM per 3 mm well, 37 °C, mean ± SD
Source text: as §1, §2, §3

[9] = test system: MRSA mature biofilm; assay: Antibiofilm microtiter plate assay (mature biofilm, crystal violet); format: cell-based, Methicillin-resistant Staphylococcus aureus (ATCC, BAA-41); conditions: absorbance 600 nm, mean ± SD
Description: The antibiofilm activities of the selected cryptides against S. enterica and MRSA mature biofilms were examined by microtiter plate assay as previously described, with slight modification. During the mid-logarithmic phase, S. enterica and MRSA were suspended at the density of 1.7 × 10^8 CFU/ml in MHB. Then 100 µl of each bacterial suspension was dispensed into a vinyl 96 U-shaped-well plate and incubated overnight at 37 °C. The mature biofilms were washed with 10 mM Tris–HCl containing 5 mM D-glucose at pH 7.4 and treated for 8 h with 100 µl of two-fold serially diluted cryptides, under the same incubation conditions. A sterile MHB medium was used as the positive control while an equivalent volume of acidified water was used to treat the negative controls. The treated biofilms were washed twice with the same washing buffer and stained with 0.1% crystal violet for 15 min followed by rinsing with sterile distilled water twice and then dried for 30 min at 37 °C. The stain was dissolved with 33% acetic acid and transferred to an optically clear 96-well flat bottom plate which was then measured at 600 nm.
Table S.4 Antibiofilm activities of the selected Cryptides against S. enterica and MRSA. Microbial cells were suspended at 1.7 X 10^8 CFU/ml density, during the mid-logarithmic phase in MHB. Then, 96 U-shaped -well plates were inoculated with 100 µl of microbial suspension and incubated for 48 h at 37 °C. The formed biofilms were washed with 10 mM Tris-HCl and treated with 100 µl of different concentrations of each peptide for 24 h. The treated biomasses were washed and fixed with methanol for 15 min at -20 °C before staining with 0.1 % crystal violet. The stained biofilms were dissolved in 100 µl of 33 % acetic acid and the quantities of crystal violet stains were determined by measuring absorbance at 600 nm as an indicator of the remaining biomass after treatment. Untreated cells were used as negative control [indicating 100 % biofilm integrity] while the sterile medium was used as a positive control [indicating 0 % biofilm integrity].
S. enterica MRSA S. enterica MRSA S. enterica MRSA S. enterica MRSA S. enterica MRSA

[10] = test system: the different tested pathogens; format: cell-based; conditions: span over tested pathogens, undetected values disregarded
Source text: as §1
As a conclusive quantitative assessment, broth microtiter assay was used to determine the MIC values of each cryptide against B. subtilis, MRSA, S. enterica, P. aeruginosa, V. parahaemolyticus and C. albicans by following the guidelines of the Clinical and Laboratory Standards Institute (CLSI)[67], with slight modifications. Eighty microliters of 5 × 10^4 CFU/ml of each pathogen were dispensed into a 96-well polypropylene microtiter plate. The wells were then treated with 20 µl of serially diluted cryptides for 3 h at 37 °C. Gentamicin was used for positive controls at 0.2 mg/ml while an equivalent volume of acidified water was used for negative controls. The plates were then topped up with a final concentration of 1 × Mueller Hinton Broth (MHB) and incubated for 18 h under the same incubation conditions. MIC was detected as the lowest concentration of each cryptide that prevents the optically detectable microbial growth at OD = 600 nm.

Molecule	Antimicrobial activity (inhibition zone) B. subtilis [1] [A.U.]	Antimicrobial activity (inhibition zone) S. aureus [2] [A.U.]	Antimicrobial activity (inhibition zone) E. faecalis [3] [A.U.]	Antimicrobial activity (inhibition zone) E. coli K-1 [4] [A.U.]	Antimicrobial activity (inhibition zone) K. pneumoniae [5] [A.U.]	Antimicrobial activity (inhibition zone) S. enterica [6] [A.U.]	Antimicrobial activity (inhibition zone) MRSA [7] [A.U.]	Antimicrobial activity (inhibition zone) S. marcescens [8] [A.U.]	Biofilm eradication MRSA, 12.5 µM [9] [%]	Biofilm eradication MRSA, 25 µM [9] [%]	Biofilm eradication MRSA, 50 µM [9] [%]	Biofilm eradication MRSA, 100 µM [9] [%]	Biofilm eradication MRSA, 200 µM [9]	MBC values, range against the different tested pathogens [10]	MIC values, range against the different tested pathogens [10]
RHCLRSKRPPNVCPH [AD4, cationic cryptide from P. vannamei precursor DN34505 (Pl-crustin 2), chemically synthesised]	13.8± 0.7	24.4 ± 0.9	14.7 ± 1.2	7.7 ± 1	0	7.7 ± 1	12.2 ± 1.1	0	0	0.86 ± 3.1	11.53 ±1.4	27.05 ±1.3	35.86 ± 2.5% and 35.8%	–	–
CC(C)C[C@H](NC(=O)[C@H](CCCNC(=N)N)NC(=O)[C@H](Cc1c[nH]c2ccccc12)NC(=O)[C@H](CCCNC(=N)N)NC(=O)[C@H](CC(C)C)NC(=O)[C@@H](N)Cc1ccccc1)C(=O)N[C@@H](CCCCN)C(=O)N[C@@H](Cc1ccccc1)C(=O)N[C@@H](CCCCN)C(=O)N[C@@H](CO)C(=O)N[C@@H](CCCCN)C(=O)N[C@H](C(=O)N[C@@H](Cc1c[nH]c2ccccc12)C(=O)N[C@@H](CS)C(=O)N1CCC[C@H]1C(=O)O)C(C)C [AD7] (H-FLRWRLKFKSKVWCP-OH)	–	–	–	–	–	–	–	–	–	–	–	–	–	0.39 ~ 25 µM	0.39 ~ 6.25 µM
